Test results reported in US7078556B2, “Antibiotics Cyan-416 A, Cyan-416 B, Cyan-416 C, Cyan-416 D and Cyan-416 E, and ester derivatives of Cyan-416 B” (Wyeth Holdings Corporation, priority 2002, dated 2006).
≈ marks a conversion by molar mass, not a printed value.

test system: Candida albicans GC 3066; assay: MIC by broth dilution; type: cell-based; conditions: GC3066, 18 h, Table 2, 18 hours at 35° C.
Experimental: (§1) The minimum inhibitory concentration (MIC), the lowest concentration of the antibiotic which inhibits growth of the test organism, is determined by the broth dilution method using Muller-Hinton II […] (Baltimore Biological Laboratories) following the recommendations of the National Committee for Clinical Laboratory Standards [Methods for dilution antimicrobial susceptibility tests for bacteria that grow aerobically. Approved standard M7-A2. National Committee for Clinical Laboratory Standards, Villanova, Pa].
(§2) An inoculum level of 5×10^5 CFU/ml, and a range of antibiotic concentrations (64–0.06 μg/ml) is used. The MIC is determined after the microtiter plates are incubated for 18 hours at 35° C. in an ambient air incubator. The test organisms comprise a spectrum of the Gram-positive bacteria Staphylococcus aureus, Streptococcus pneumoniae, and Enterococcus sp., the Gram-negative bacteria Escherichia coli, and the yeast Candida albicans. These organisms include recent clinical isolates that are resistant to methicillin and vancomycin. MIC data of Cyan-416 A–E are listed in Table 1 and MIC data of ester derivatives of Cyan-416 B (Formula I) are listed in Table 2.

SMILES | MIC
CCCC(=O)O[C@H]1c2cc(C)cc(O)c2C(O)=C2C(=O)[C@H]3C=C[C@]21Cc1cc(O)c(C(=O)c2c(O)ccc(O)c2C(=O)OC)c(O)c13 [Example 6, Cyan-416 B butyrate] | > 128 µg/mL
COC(=O)c1c(O)ccc(O)c1C(=O)c1c(O)cc2c(c1O)[C@@H]1C=C[C@]3(C2)C(=C(O)c2c(O)cc(C)cc2[C@@H]3OC(=O)C(C)C)C1=O [Example 7, Cyan-416 B isobutyrate] | > 128 µg/mL

test system: Enterococcus faecalis GC 2242; assay: MIC by broth dilution; type: cell-based; conditions: GC2242, Table 2, 18 hours at 35° C., read-out: MIC
Experimental: as §1, §2

SMILES | MIC
CCCC(=O)O[C@H]1c2cc(C)cc(O)c2C(O)=C2C(=O)[C@H]3C=C[C@]21Cc1cc(O)c(C(=O)c2c(O)ccc(O)c2C(=O)OC)c(O)c13 [Example 6, Cyan-416 B butyrate] | 8 µg/mL (≈ 12.4 µM)
COC(=O)c1c(O)ccc(O)c1C(=O)c1c(O)cc2c(c1O)[C@@H]1C=C[C@]3(C2)C(=C(O)c2c(O)cc(C)cc2[C@@H]3OC(=O)C(C)C)C1=O [Example 7, Cyan-416 B isobutyrate] | 4 µg/mL (≈ 6.22 µM)

test system: Enterococcus faecalis GC 4555; assay: MIC by broth dilution; type: cell-based; conditions: GC4555, Table 2, 18 hours at 35° C., read-out: MIC
Experimental: as §1, §2

SMILES | MIC
CCCC(=O)O[C@H]1c2cc(C)cc(O)c2C(O)=C2C(=O)[C@H]3C=C[C@]21Cc1cc(O)c(C(=O)c2c(O)ccc(O)c2C(=O)OC)c(O)c13 [Example 6, Cyan-416 B butyrate] | 16 µg/mL (≈ 24.9 µM)
COC(=O)c1c(O)ccc(O)c1C(=O)c1c(O)cc2c(c1O)[C@@H]1C=C[C@]3(C2)C(=C(O)c2c(O)cc(C)cc2[C@@H]3OC(=O)C(C)C)C1=O [Example 7, Cyan-416 B isobutyrate] | 4 µg/mL (≈ 6.22 µM)

test system: Enterococcus faecalis GC 6189; assay: MIC by broth dilution; type: cell-based; conditions: GC6189, Table 2, 18 hours at 35° C.
Experimental: as §1, §2

SMILES | MIC
CCCC(=O)O[C@H]1c2cc(C)cc(O)c2C(O)=C2C(=O)[C@H]3C=C[C@]21Cc1cc(O)c(C(=O)c2c(O)ccc(O)c2C(=O)OC)c(O)c13 [Example 6, Cyan-416 B butyrate] | 16 µg/mL (≈ 24.9 µM)
COC(=O)c1c(O)ccc(O)c1C(=O)c1c(O)cc2c(c1O)[C@@H]1C=C[C@]3(C2)C(=C(O)c2c(O)cc(C)cc2[C@@H]3OC(=O)C(C)C)C1=O [Example 7, Cyan-416 B isobutyrate] | 4 µg/mL (≈ 6.22 µM)

test system: Enterococcus faecium 4558; assay: MIC by broth dilution; type: cell-based; conditions: Table 2, 18 hours at 35° C.
Experimental: as §1, §2

SMILES | MIC
CCCC(=O)O[C@H]1c2cc(C)cc(O)c2C(O)=C2C(=O)[C@H]3C=C[C@]21Cc1cc(O)c(C(=O)c2c(O)ccc(O)c2C(=O)OC)c(O)c13 [Example 6, Cyan-416 B butyrate] | 8 µg/mL (≈ 12.4 µM)
COC(=O)c1c(O)ccc(O)c1C(=O)c1c(O)cc2c(c1O)[C@@H]1C=C[C@]3(C2)C(=C(O)c2c(O)cc(C)cc2[C@@H]3OC(=O)C(C)C)C1=O [Example 7, Cyan-416 B isobutyrate] | 2 µg/mL (≈ 3.11 µM)

test system: Enterococcus faecium GC 2243; assay: MIC by broth dilution; type: cell-based; conditions: GC2243, Table 2, 18 hours at 35° C.
Experimental: as §1, §2

SMILES | MIC
CCCC(=O)O[C@H]1c2cc(C)cc(O)c2C(O)=C2C(=O)[C@H]3C=C[C@]21Cc1cc(O)c(C(=O)c2c(O)ccc(O)c2C(=O)OC)c(O)c13 [Example 6, Cyan-416 B butyrate] | 16 µg/mL (≈ 24.9 µM)
COC(=O)c1c(O)ccc(O)c1C(=O)c1c(O)cc2c(c1O)[C@@H]1C=C[C@]3(C2)C(=C(O)c2c(O)cc(C)cc2[C@@H]3OC(=O)C(C)C)C1=O [Example 7, Cyan-416 B isobutyrate] | 8 µg/mL (≈ 12.4 µM)

test system: Enterococcus faecium GC 4556; assay: MIC by broth dilution; type: cell-based; conditions: GC4556, Table 2, 18 hours at 35° C.
Experimental: as §1, §2

SMILES | MIC
CCCC(=O)O[C@H]1c2cc(C)cc(O)c2C(O)=C2C(=O)[C@H]3C=C[C@]21Cc1cc(O)c(C(=O)c2c(O)ccc(O)c2C(=O)OC)c(O)c13 [Example 6, Cyan-416 B butyrate] | 8 µg/mL (≈ 12.4 µM)
COC(=O)c1c(O)ccc(O)c1C(=O)c1c(O)cc2c(c1O)[C@@H]1C=C[C@]3(C2)C(=C(O)c2c(O)cc(C)cc2[C@@H]3OC(=O)C(C)C)C1=O [Example 7, Cyan-416 B isobutyrate] | 4 µg/mL (≈ 6.22 µM)

test system: Escherichia coli GC 2203; assay: MIC by broth dilution; type: cell-based; conditions: GC2203, 18 h, Table 2, Escherichia coli coli GC 2203, 18 hours at 35° C.
Experimental: as §1, §2

SMILES | MIC
CCCC(=O)O[C@H]1c2cc(C)cc(O)c2C(O)=C2C(=O)[C@H]3C=C[C@]21Cc1cc(O)c(C(=O)c2c(O)ccc(O)c2C(=O)OC)c(O)c13 [Example 6, Cyan-416 B butyrate] | > 128 µg/mL
COC(=O)c1c(O)ccc(O)c1C(=O)c1c(O)cc2c(c1O)[C@@H]1C=C[C@]3(C2)C(=C(O)c2c(O)cc(C)cc2[C@@H]3OC(=O)C(C)C)C1=O [Example 7, Cyan-416 B isobutyrate] | > 128 µg/mL

test system: Escherichia coli GC 4560 (imp); assay: MIC by broth dilution; type: cell-based; conditions: Escherichia coli, 18 h
Experimental: as §1, §2

SMILES | MIC
CCCC(=O)O[C@H]1c2cc(C)cc(O)c2C(O)=C2C(=O)[C@H]3C=C[C@]21Cc1cc(O)c(C(=O)c2c(O)ccc(O)c2C(=O)OC)c(O)c13 [Example 6, Cyan-416 B butyrate] | 16 µg/mL (≈ 24.9 µM)
COC(=O)c1c(O)ccc(O)c1C(=O)c1c(O)cc2c(c1O)[C@@H]1C=C[C@]3(C2)C(=C(O)c2c(O)cc(C)cc2[C@@H]3OC(=O)C(C)C)C1=O [Example 7, Cyan-416 B isobutyrate] | 8 µg/mL (≈ 12.4 µM)

test system: Staphylococcus aureus GC 1131; assay: MIC by broth dilution; type: cell-based; conditions: GC1131, Table 2, 18 hours at 35° C., read-out: MIC
Experimental: as §1, §2

SMILES | MIC
CCCC(=O)O[C@H]1c2cc(C)cc(O)c2C(O)=C2C(=O)[C@H]3C=C[C@]21Cc1cc(O)c(C(=O)c2c(O)ccc(O)c2C(=O)OC)c(O)c13 [Example 6, Cyan-416 B butyrate] | 8 µg/mL (≈ 12.4 µM)
COC(=O)c1c(O)ccc(O)c1C(=O)c1c(O)cc2c(c1O)[C@@H]1C=C[C@]3(C2)C(=C(O)c2c(O)cc(C)cc2[C@@H]3OC(=O)C(C)C)C1=O [Example 7, Cyan-416 B isobutyrate] | 4 µg/mL (≈ 6.22 µM)

test system: Staphylococcus aureus GC 2216; assay: MIC by broth dilution; type: cell-based; conditions: GC2216, Table 2, 18 hours at 35° C., read-out: MIC
Experimental: as §1, §2

SMILES | MIC
CCCC(=O)O[C@H]1c2cc(C)cc(O)c2C(O)=C2C(=O)[C@H]3C=C[C@]21Cc1cc(O)c(C(=O)c2c(O)ccc(O)c2C(=O)OC)c(O)c13 [Example 6, Cyan-416 B butyrate] | 8 µg/mL (≈ 12.4 µM)
COC(=O)c1c(O)ccc(O)c1C(=O)c1c(O)cc2c(c1O)[C@@H]1C=C[C@]3(C2)C(=C(O)c2c(O)cc(C)cc2[C@@H]3OC(=O)C(C)C)C1=O [Example 7, Cyan-416 B isobutyrate] | 4 µg/mL (≈ 6.22 µM)

test system: Staphylococcus aureus GC 4541; assay: MIC by broth dilution; type: cell-based; conditions: GC4541, Table 2, 18 hours at 35° C.
Experimental: as §1, §2

SMILES | MIC
CCCC(=O)O[C@H]1c2cc(C)cc(O)c2C(O)=C2C(=O)[C@H]3C=C[C@]21Cc1cc(O)c(C(=O)c2c(O)ccc(O)c2C(=O)OC)c(O)c13 [Example 6, Cyan-416 B butyrate] | 8 µg/mL (≈ 12.4 µM)
COC(=O)c1c(O)ccc(O)c1C(=O)c1c(O)cc2c(c1O)[C@@H]1C=C[C@]3(C2)C(=C(O)c2c(O)cc(C)cc2[C@@H]3OC(=O)C(C)C)C1=O [Example 7, Cyan-416 B isobutyrate] | 2 µg/mL (≈ 3.11 µM)

test system: Staphylococcus aureus GC 4543; assay: MIC by broth dilution; type: cell-based; conditions: GC4543, Table 2, 18 hours at 35° C.
Experimental: as §1, §2

SMILES | MIC
CCCC(=O)O[C@H]1c2cc(C)cc(O)c2C(O)=C2C(=O)[C@H]3C=C[C@]21Cc1cc(O)c(C(=O)c2c(O)ccc(O)c2C(=O)OC)c(O)c13 [Example 6, Cyan-416 B butyrate] | 8 µg/mL (≈ 12.4 µM)
COC(=O)c1c(O)ccc(O)c1C(=O)c1c(O)cc2c(c1O)[C@@H]1C=C[C@]3(C2)C(=C(O)c2c(O)cc(C)cc2[C@@H]3OC(=O)C(C)C)C1=O [Example 7, Cyan-416 B isobutyrate] | 4 µg/mL (≈ 6.22 µM)

test system: Staphylococcus haemolyticus GC 4547; assay: MIC by broth dilution; type: cell-based; conditions: GC4547, Table 2, 18 hours at 35° C.
Experimental: as §1, §2

SMILES | MIC
CCCC(=O)O[C@H]1c2cc(C)cc(O)c2C(O)=C2C(=O)[C@H]3C=C[C@]21Cc1cc(O)c(C(=O)c2c(O)ccc(O)c2C(=O)OC)c(O)c13 [Example 6, Cyan-416 B butyrate] | 16 µg/mL (≈ 24.9 µM)
COC(=O)c1c(O)ccc(O)c1C(=O)c1c(O)cc2c(c1O)[C@@H]1C=C[C@]3(C2)C(=C(O)c2c(O)cc(C)cc2[C@@H]3OC(=O)C(C)C)C1=O [Example 7, Cyan-416 B isobutyrate] | 4 µg/mL (≈ 6.22 µM)

test system: Streptococcus pneumoniae GC 1894; assay: MIC by broth dilution; type: cell-based; conditions: GC1894, Table 2, 18 hours at 35° C.
Experimental: as §1, §2

SMILES | MIC
CCCC(=O)O[C@H]1c2cc(C)cc(O)c2C(O)=C2C(=O)[C@H]3C=C[C@]21Cc1cc(O)c(C(=O)c2c(O)ccc(O)c2C(=O)OC)c(O)c13 [Example 6, Cyan-416 B butyrate] | 16 µg/mL (≈ 24.9 µM)
COC(=O)c1c(O)ccc(O)c1C(=O)c1c(O)cc2c(c1O)[C@@H]1C=C[C@]3(C2)C(=C(O)c2c(O)cc(C)cc2[C@@H]3OC(=O)C(C)C)C1=O [Example 7, Cyan-416 B isobutyrate] | 8 µg/mL (≈ 12.4 µM)

test system: Streptococcus pneumoniae GC 6242; assay: MIC by broth dilution; type: cell-based; conditions: GC6242, Table 2, 18 hours at 35° C.
Experimental: as §1, §2

SMILES | MIC
CCCC(=O)O[C@H]1c2cc(C)cc(O)c2C(O)=C2C(=O)[C@H]3C=C[C@]21Cc1cc(O)c(C(=O)c2c(O)ccc(O)c2C(=O)OC)c(O)c13 [Example 6, Cyan-416 B butyrate] | 32 µg/mL (≈ 49.8 µM)
COC(=O)c1c(O)ccc(O)c1C(=O)c1c(O)cc2c(c1O)[C@@H]1C=C[C@]3(C2)C(=C(O)c2c(O)cc(C)cc2[C@@H]3OC(=O)C(C)C)C1=O [Example 7, Cyan-416 B isobutyrate] | 16 µg/mL (≈ 24.9 µM)
